# Reference: the supplement of paper PMC10477900
# Counter-ions that a name gives are not always drawn.
# How the values were obtained:
# HCT116 [1] = test: viability inhibition vs untreated; higher = more cytotoxic; conditions: 72 h
# HCT116 [2] = conditions: 72 h
# Experimental: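 HCT116 control and MTA1-KO (CRISPR) HCT116 cells were seeded in 384-well plates (800 cells/well), treated 16 h later with 237 metabolism-related anticancer drugs at five doses (10 uM, 2 uM, 400 nM, 80 nM, 16 nM) for 72 h, two replicates; viability by CCK8. Values are % inhibition of viability relative to untreated cells, plus fitted IC50.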
Compound,"viability inhibition (HCT116 [1]; genotype: MTA1-KO, 16 nM) [%]","viability inhibition (HCT116 [1]; genotype: MTA1-KO, 80 nM) [%]","viability inhibition (HCT116 [1]; genotype: MTA1-KO, 400 nM) [%]","viability inhibition (HCT116 [1]; genotype: MTA1-KO, 2000 nM) [%]","viability inhibition (HCT116 [1]; genotype: MTA1-KO, 10000 nM) [%]","viability inhibition (HCT116 [1]; genotype: control, 16 nM) [%]","viability inhibition (HCT116 [1]; genotype: control, 80 nM) [%]","viability inhibition (HCT116 [1]; genotype: control, 400 nM) [%]","viability inhibition (HCT116 [1]; genotype: control, 2000 nM) [%]","viability inhibition (HCT116 [1]; genotype: control, 10000 nM) [%]",IC50 (HCT116 [2]; genotype: MTA1-KO) [µM],IC50 (HCT116 [2]; genotype: control) [µM]
Nc1ncnc2c1ncn2[C@@H]1O[C@H](COP(=O)(O)O)[C@@H](O)[C@H]1O [Adenosine 5'-monophosphate],1.56,3.02,2,-3.03,4.43,9.4,14.9,9.53,10.4,17.4,> 10,> 10
NCCCCN=C(N)N [Agmatine sulfate salt],-2.78,3.53,1.54,7.76,55.4,11.2,9.12,22.6,28.6,22.5,8.87,> 10
NN=C(N)N [Aminoguanidine hydrochloride],-22,-27.7,-23.9,-10.8,-13.7,-13.6,-11.1,-12.3,-13.1,-5.39,> 10,> 10
O=C1c2cccc(O)c2C(=O)c2c(O)cccc21 [Antrapurol],7.43,-5.62,-8.24,-0.432,0.85,1.11,-7.37,-11.3,-10.5,29.6,> 10,> 10
O=c1cc(-c2ccc(O)cc2)oc2cc(O)cc(O)c12 [Apigenin],-5.33,-2.46,-0.547,-8.58,12.7,20.8,0.478,4.05,4.56,44.8,> 10,> 10
Cc1c(CN2CCN(C(=O)[C@H](C)O)CC2)sc2c(N3CCOCC3)nc(-c3cnc(N)nc3)nc12 [Apitolisib],-11.5,2.04,38.8,65.3,82.6,0.365,0.791,60.6,70.1,80.4,0.471,0.268
CC(C)c1c(C(=O)Nc2ccccc2)c(-c2ccccc2)c(-c2ccc(F)cc2)n1CC[C@@H](O)C[C@@H](O)CC(=O)O [Atorvastatin Calcium],-2.27,-15.2,-21.3,-22.7,-6.12,6.18,-8.85,-7.43,-3.65,17,> 10,> 10
Cc1c(NC(=O)c2cc(C(N)=O)nc3cc(F)ccc23)c(C(F)(F)F)nn1Cc1ccc(C#N)cc1 [BAY876],50.2,73,82,90.4,110,72.8,89.8,97.7,103,102,< 0.016,< 0.016
Cc1cc(-c2nc(-c3ccc(OC(F)(F)F)cc3)no2)nn1Cc1ccnc(N2CCN(C3CC3)CC2)c1 [BAY 87-2243],21,24.5,21.4,19.2,19.2,86.8,72.7,68.2,67.4,70.2,> 10,< 0.016
